Measured values as given in ChEMBL document CHEMBL5724696, “Autophagy assay results for EUbOPEN Chemogenomics Library” (2024).
Several values for one entry are separate records, joined by “and”; a condition that tells them apart may be missing. Identical values can stand only once.

Columns and labels:
Assay type in all cases: functional, Homo sapiens
U2OS [1] = test: (§1) Here: values are normalized to the negative (DMSO; defined as 0% autophagy induction) and positive (250nM Torin1; mTOR inhibitor; defined as maximal inducer of autophagy = 100%) control compounds and represented as % of autophagy induction. […] The impact of autophagy induction on cells is complex and depends on the affected target. As such, the magnitude of a phenotype may not be equally mirrored in the %-value of autophagy induction and vice versa. The dynamics of the induction may indicate the mode of activation: e.g. activation via phosphorylation or a signaling cascade may occur fast, while activation via transcription factors may take considerably longer. […] Of note, treatment concentrations may be sub-optimal for specific compounds, leading to false negative annotations.; conditions: Culturing Media DMEM, 1 % Penicillin/Streptomycin, 10% Fetal bovin serum Add-On: No, Screening Media Control DMEM, Screening Media Samples DMEM
TERT-RPE1 = test: as §1; conditions: Culturing Media DMEM/F12 (1:1), 1 % Penicillin/Streptomycin, 10% Fetal bovin serum Add-On: No, Screening Media Control DMEM/F12 (1:1), Screening Media Samples DMEM/F12 (1:1)
U2OS [2] = test: as §1; conditions: Culturing Media DMEM, 1 % Penicillin/Streptomycin, 10% Fetal bovin serum Add-On: No, Screening Media Control DMEM, Screening Media Samples DMEM; remark: listed apart in the source
[3] = Compound Concentration 0.5 uM, Timepoint 12 hours
[4] = Compound Concentration 0.5 uM, Timepoint 24 hours
[5] = Compound Concentration 0.5 uM, Timepoint 36 hours
[6] = Compound Concentration 0.5 uM, Timepoint 60 hours
[7] = Compound Concentration 2 uM, Timepoint 12 hours
[8] = Compound Concentration 2 uM, Timepoint 24 hours
[9] = Compound Concentration 2 uM, Timepoint 36 hours
[10] = Compound Concentration 2 uM, Timepoint 60 hours
[11] = Compound Concentration 10 uM, Timepoint 12 hours
[12] = Compound Concentration 10 uM, Timepoint 24 hours
[13] = Compound Concentration 10 uM, Timepoint 36 hours
[14] = Compound Concentration 10 uM, Timepoint 60 hours

| SMILES | autophagy induction (U2OS [1]; [3]) | autophagy induction (U2OS [1]; [4]) | autophagy induction (U2OS [1]; [5]) | autophagy induction (U2OS [1]; [6]) | autophagy induction (U2OS [1]; [7]) | autophagy induction (U2OS [1]; [8]) | autophagy induction (U2OS [1]; [9]) | autophagy induction (U2OS [1]; [10]) | autophagy induction (U2OS [1]; [11]) | autophagy induction (U2OS [1]; [12]) | autophagy induction (U2OS [1]; [13]) | autophagy induction (U2OS [1]; [14]) | autophagy induction (U2OS [2]; [3]) | autophagy induction (U2OS [2]; [4]) | autophagy induction (U2OS [2]; [5]) | autophagy induction (U2OS [2]; [6]) | autophagy induction (U2OS [2]; [7]) | autophagy induction (U2OS [2]; [8]) | autophagy induction (U2OS [2]; [9]) | autophagy induction (U2OS [2]; [10]) | also measured |
| --- | --- | --- | --- | --- | --- | --- | --- | --- | --- | --- | --- | --- | --- | --- | --- | --- | --- | --- | --- | --- | --- |
| CC1=C2C[C@H]3[C@@H](CC=C4C[C@@H](O)CC[C@@]43C)[C@@H]2CC[C@]12O[C@@H]1C[C@H](C)CN[C@H]1[C@H]2C [CYCLOPAMINE] | -10.7714% | -6.065% | -46.3072% | -1.6767% | -23.8167% | -9.227% | -62.0777% | -2.064% | -31.4833% | -9.078% | -61.7295% | -4.044% | -5.379% | -12.5809% | -11.7869% | -7.179% | -12.942% | -16.2845% | -11.3886% | -12.7281% | autophagy induction (TERT-RPE1; Compound Concentration 0.5 uM, Timepoint 12 hours, 12 h, 0.5 µM): -1.95% and 0.112%; autophagy induction (TERT-RPE1; Compound Concentration 0.5 uM, Timepoint 24 hours, 24 h, 0.5 µM): -5.579% and 2.177%; autophagy induction (TERT-RPE1; Compound Concentration 0.5 uM, Timepoint 36 hours, 36 h, 0.5 µM): -7.952% and 1.185%; autophagy induction (TERT-RPE1; Compound Concentration 0.5 uM, Timepoint 60 hours, 60 h, 0.5 µM): -10.1078% and 0.5911%; autophagy induction (TERT-RPE1; Compound Concentration 2 uM, Timepoint 12 hours, 12 h, 2 µM): -0.5068% and 11.5959%; autophagy induction (TERT-RPE1; Compound Concentration 2 uM, Timepoint 24 hours, 24 h, 2 µM): -0.6761% and 8.252%; autophagy induction (TERT-RPE1; Compound Concentration 2 uM, Timepoint 36 hours, 36 h, 2 µM): -1.445% and 8.279%; autophagy induction (TERT-RPE1; Compound Concentration 2 uM, Timepoint 60 hours, 60 h, 2 µM): -2.949% and 8.955%; autophagy induction (TERT-RPE1; Compound Concentration 10 uM, Timepoint 12 hours, 12 h, 10 µM): 18.7284% and 8.103%; autophagy induction (TERT-RPE1; Compound Concentration 10 uM, Timepoint 24 hours, 24 h, 10 µM): 21.8058% and 8.836%; autophagy induction (TERT-RPE1; Compound Concentration 10 uM, Timepoint 36 hours, 36 h, 10 µM): 27.6829% and 10.6231%; autophagy induction (TERT-RPE1; Compound Concentration 10 uM, Timepoint 60 hours, 60 h, 10 µM): 29.1115% and 13.2783%; autophagy induction (U2OS [2]; [11]): -9.168%; autophagy induction (U2OS [2]; [12]): -9.072%; autophagy induction (U2OS [2]; [13]): -3.104%; autophagy induction (U2OS [2]; [14]): 2.518% |
| O=C(Nc1ccc(Cl)cc1)Nc1cccc(-c2cccc(N3CCCC3)n2)c1 | 3.433% | -0.7352% | -0.9133% | -1.608% | -0.4509% | -1.587% | -2.698% | -2.799% | -2.177% | -0.7353% | -4.281% | 0.461% | 17.3616% | 17.7757% | 11.2699% | 1.747% | 20.6353% | 15.806% | 8.553% | 8.133% | autophagy induction (TERT-RPE1; [3]): -4.744%; autophagy induction (TERT-RPE1; [4]): -3.44%; autophagy induction (TERT-RPE1; [5]): 1.901%; autophagy induction (TERT-RPE1; [6]): 11.3473%; autophagy induction (TERT-RPE1; [7]): -2.257%; autophagy induction (TERT-RPE1; [8]): -2.102%; autophagy induction (TERT-RPE1; [9]): -2.6063%; autophagy induction (TERT-RPE1; [10]): -0.1832%; autophagy induction (TERT-RPE1; [11]): -0.5349%; autophagy induction (TERT-RPE1; [12]): 20.6675%; autophagy induction (TERT-RPE1; [13]): 44.4615%; autophagy induction (TERT-RPE1; [14]): 64.0305%; autophagy induction (U2OS [2]; [11]): -2.269%; autophagy induction (U2OS [2]; [12]): 13.0876%; autophagy induction (U2OS [2]; [13]): 22.7984%; autophagy induction (U2OS [2]; [14]): 31.1337% |
